Measured values published in patent publication US20030207813A1, “Retroviral protease inhibitor combinations” (priority 1995, published 2003).

What was measured:
HIV-1NL4-3 = test: microbe, parasite or virus in culture; assay type: cell-based; conditions: Human immunodeficiency virus 1, NL4
Description: (§1) RF represents the HIV-1 strain HIV-LRF and RFR represents a mixture of resistant strains obtained by selection of RF against the compound of Example 1. […] RFR2 represents a mixture of resistant strains obtained by cloning RFR by three rounds of growth at limiting dilution. […] RFRR represents a mixture of resistant strains obtained by selection of RF against the compounds of Examples 1 and 2 and then cloning by three rounds of growth at limiting dilution. […] SF162 represents the HIV-1 strain SF-162 and SF162R represents a mixture of resistant strains obtained by selection of SF162 against the compound of Example 1. […] 89-959 represents the HIV-1 strain 89-959 and 89-959R represents a mixture of resistant strains obtained by selection of 89-959 against the compound of Example 2. […] NL4 represents the HIV-1 strain HIV-1NL4-3. NL4(G48V) represents a strain having a synthetically generated site-directed mutation in the protease from glycine to valine at amino acid position number 48. NL4(I84V) represents a strain having a synthetically generated site-directed mutation in the protease from isoleucine to valine at amino acid position number 84. NL4(R8Q,M46I) represents a strain having synthetically generated site-directed mutations in the protease from arginine to glutamine at amino acid position number 8 and methionine to isoleucine at amino acid position number 46.

NL4(G48V) = test: Viral isolate resistance assay per Markowitz et al., NL4(G48V); assay type: cell-based, HIV-1; conditions: Human immunodeficiency virus 1, Table 7
Description: as §1

NL4(I84V) = test: Viral isolate resistance assay per Markowitz et al., NL4(I84V); assay type: cell-based, HIV-1; conditions: Human immunodeficiency virus 1, Table 7
Description: as §1

NL4(R8Q,M46I) = test: Viral isolate resistance assay per Markowitz et al., NL4(R8Q,M46I); assay type: cell-based, HIV-1; conditions: Human immunodeficiency virus 1, read-out: Virus Isolate (EC50 nM) NL4(R8O, M46I)
Description: (§2) RF represents the HIV-1 strain HIV-LRF and RFR represents a mixture of resistant strains obtained by selection of RF against the compound of Example 1. RFR comprises a mixture of viral strains having protease genotypes of G48V (14/40 clones); G48V, V82A (18/40 clones); G48V, L90S (2/40 clones); G48V, 154T, V82A (1/40 clones); G48M (1/40 clones); G48V, Q61H (1/40 clones); V13I, G48V (1/40 clones); G48V, F53L, V82A (1/40 clones); and G48V, V82A, C95Y (1/40 clones). RFR2 represents a mixture of resistant strains obtained by cloning RFR by three rounds of growth at limiting dilution. RFR2 comprises a mixture of viral strains having protease genotypes of G48V, V82A (13/15 clones); G17E, G48V, V82A (1/15 clones); and G48V, V82A, N37D, N88D (1/15 clones). RFRR represents a mixture of resistant strains obtained by selection of RF against the compounds of Examples 1 and 2 and then cloning by three rounds of growth at limiting dilution. RFRR comprises a mixture of viral strains having protease genotypes of G48V, 154T, L63P, V82A (7/9 clones); G48V, 154T, L63P, V82A, N88S (1/9 clones); and G48V, 154T, L63P, G73M, V82A (1/9 clones). SF162 represents the HIV-1 strain SF-162 and SF162R represents a mixture of resistant strains obtained by selection of SF162 against the compound of Example 1. SF162R comprises a mixture of viral strains having protease genotypes of M461, F53L, L63P, A71V, N88D (2/3 clones); and M46I, F53L, L63P, A71V, N88D, Q92R (1/3 clones). 89-959 represents the HIV-1 strain 89-959 and 89-959R represents a mixture of resistant strains obtained by selection of 89-959 against the compound of Example 2. 89-959R comprises a mixture of viral strains having protease genotypes of N88S (4/5 clones); and D25N, T26A, D30N, D37N, R41K, G73D, R87K, N88S (1/4 clones). NL4 represents the HIV-1 strain HIV-1NL4-3. NL4(G48V) represents a strain having a synthetically generated site-directed mutation in the protease from glycine to valine at amino acid position number 48. […]

NL4(P22-538) = test: Viral isolate resistance assay per Markowitz et al., NL4(P22-538); assay type: cell-based, HIV-1; conditions: Human immunodeficiency virus 1; Table 9; selected against Example 10, 22 passages; read-out: Virus Isolate (EC50 nM) NL4(P22-538)
Description: as §2, with “48. NL4(I84V) represents a strain having a synthetically generated site-directed mutation in the protease from isoleucine to valine at amino acid position number 84. NL4(R8Q,M46I) represents a strain having synthetically generated site-directed mutations in the protease from arginine to glutamine at amino acid position number 8 and methionine to isoleucine at amino acid position number 46. NL4(P22-538) represents a mixture of resistant strains obtained by selection of HIV-1NL4-3 against the compound of Example 10 after 22 passages comprising protease genotypes M46I, L63P, A71V, V82F, I84V (4/10); M46I, L63P, V82F, I84V (3/10); and M46I, A71V, V82F, I84V (3/10). NL4(P37-538) represents resistant strains obtained by selection of HIV-1NL4-3 against the compound of Example 10 after 37 passages comprising protease genotype M46I, L63P, A71V, 184A. NL4(538/524) represents resistant strains obtained by selection of NL4(P22-538) against the compound of Example 5 after 24 passages comprising protease genotype M46I, L63P, A71V, 184A. NL4(538/P7-AG) represents a mixture of resistant strains obtained by selection of NL4(P22-538) against the compound of Example 12 after 7 passages comprising protease genotypes M46I, L63P, A71V, 184A; and V321, V82I. NL4(538/P24-AG) represents resistant strains obtained by selection of NL4(P22-538) against the compound of Example 12 after 24 passages comprising protease genotype M46I, L63P, A71V, 184A.” for “48.”

NL4(P37-538) = test: Viral isolate resistance assay per Markowitz et al., NL4(P37-538); assay type: cell-based, HIV-1; conditions: Human immunodeficiency virus 1; Table 9; selected against Example 10, 37 passages; read-out: Virus Isolate (EC50 nM) NL4(P37-538)
Description: (§3) RF represents the HIV-1 strain HIV-LRF and RFR represents a mixture of resistant strains obtained by selection of RF against the compound of Example 1. RFR comprises a mixture of viral strains having protease genotypes of G48V (14/40 clones); G48V, V82A (18/40 clones); G48V, L90S (2/40 clones); G48V, 154T, V82A (1/40 clones); G48M (1/40 clones); G48V, Q61H (1/40 clones); V13I, G48V (1/40 clones); G48V, F53L, V82A (1/40 clones); and G48V, V82A, C95Y (1/40 clones). RFR2 represents a mixture of resistant strains obtained by cloning RFR by three rounds of growth at limiting dilution. RFR2 comprises a mixture of viral strains having protease genotypes of G48V, V82A (13/15 clones); G17E, G48V, V82A (1/15 clones); and G48V, V82A, N37D, N88D (1/15 clones). RFRR represents a mixture of resistant strains obtained by selection of RF against the compounds of Examples 1 and 2 and then cloning by three rounds of growth at limiting dilution. RFRR comprises a mixture of viral strains having protease genotypes of G48V, 154T, L63P, V82A (7/9 clones); G48V, 154T, L63P, V82A, N88S (1/9 clones); and G48V, 154T, L63P, G73M, V82A (1/9 clones). SF162 represents the HIV-1 strain SF-162 and SF162R represents a mixture of resistant strains obtained by selection of SF162 against the compound of Example 1. SF162R comprises a mixture of viral strains having protease genotypes of M461, F53L, L63P, A71V, N88D (2/3 clones); and M46I, F53L, L63P, A71V, N88D, Q92R (1/3 clones). 89-959 represents the HIV-1 strain 89-959 and 89-959R represents a mixture of resistant strains obtained by selection of 89-959 against the compound of Example 2. 89-959R comprises a mixture of viral strains having protease genotypes of N88S (4/5 clones); and D25N, T26A, D30N, D37N, R41K, G73D, R87K, N88S (1/4 clones). NL4 represents the HIV-1 strain HIV-1NL4-3. NL4(G48V) represents a strain having a synthetically generated site-directed mutation in the protease from glycine to valine at amino acid position number 48. NL4(I84V) represents a strain having a synthetically generated site-directed mutation in the protease from isoleucine to valine at amino acid position number 84. NL4(R8Q,M46I) represents a strain having synthetically generated site-directed mutations in the protease from arginine to glutamine at amino acid position number 8 and methionine to isoleucine at amino acid position number 46. NL4(P22-538) represents a mixture of resistant strains obtained by selection of HIV-1NL4-3 against the compound of Example 10 after 22 passages comprising protease genotypes M46I, L63P, A71V, V82F, I84V (4/10); M46I, L63P, V82F, I84V (3/10); and M46I, A71V, V82F, I84V (3/10). NL4(P37-538) represents resistant strains obtained by selection of HIV-1NL4-3 against the compound of Example 10 after 37 passages comprising protease genotype M46I, L63P, A71V, 184A. NL4(538/524) represents resistant strains obtained by selection of NL4(P22-538) against the compound of Example 5 after 24 passages comprising protease genotype M46I, L63P, A71V, 184A. NL4(538/P7-AG) represents a mixture of resistant strains obtained by selection of NL4(P22-538) against the compound of Example 12 after 7 passages comprising protease genotypes M46I, L63P, A71V, 184A; and V321, V82I. NL4(538/P24-AG) represents resistant strains obtained by selection of NL4(P22-538) against the compound of Example 12 after 24 passages comprising protease genotype M46I, L63P, A71V, 184A. NLA(P19-003) represents resistant strains obtained by selection of HIV-1^NL4-3 against the compound of Example 9 after 19 passages comprising protease genotype R8K, M46I. NL4(P34-003) represents resistant strains obtained by selection of HIV-1^NL4-3 against the compound of Example 9 after 34 passages comprising protease genotype R8K, M46I, L63P, A71V, L90M.
The viral isolate resistance results summarized in Tables 7-11 were generated according to the assay procedures described by Markowitz et al., Journal of Virology, vol. […]

NL4(538/524) = test: Viral isolate resistance assay per Markowitz et al., NL4(538/524); assay type: cell-based, HIV-1; conditions: Human immunodeficiency virus 1; Table 10; NL4(P22-538) selected against Example 5, 24 passages
Description: as §3, with “NLA(P19-003) represents resistant strains obtained by selection of HIV-1^NL4-3 against the compound of Example 9 after 19 passages comprising protease genotype R8K, M46I. NL4(P34-003) represents resistant strains obtained by selection of HIV-1^NL4-3 against the compound of Example 9 after 34 passages comprising protease genotype R8K, M46I, L63P, A71V, L90M.” left out

NL4(538/P7-AG) = test: Viral isolate resistance assay per Markowitz et al., NL4(538/P7-AG); assay type: cell-based, HIV-1; conditions: Human immunodeficiency virus 1; Table 10; NL4(P22-538) selected against Example 12, 7 passages
Description: as §3, with “NLA(P19-003) represents resistant strains obtained by selection of HIV-1^NL4-3 against the compound of Example 9 after 19 passages comprising protease genotype R8K, M46I. NL4(P34-003) represents resistant strains obtained by selection of HIV-1^NL4-3 against the compound of Example 9 after 34 passages comprising protease genotype R8K, M46I, L63P, A71V, L90M.” left out

NL4(538/P24-AG) = test: Viral isolate resistance assay per Markowitz et al., NL4(538/P24-AG); assay type: cell-based, HIV-1; conditions: Human immunodeficiency virus 1; Table 10; NL4(P22-538) selected against Example 12, 24 passages
Description: as §3, with “NLA(P19-003) represents resistant strains obtained by selection of HIV-1^NL4-3 against the compound of Example 9 after 19 passages comprising protease genotype R8K, M46I. NL4(P34-003) represents resistant strains obtained by selection of HIV-1^NL4-3 against the compound of Example 9 after 34 passages comprising protease genotype R8K, M46I, L63P, A71V, L90M.” left out

NLA(P19-003) = test: Viral isolate resistance assay per Markowitz et al., NLA(P19-003); assay type: cell-based, HIV-1; conditions: Human immunodeficiency virus 1, read-out: Virus Isolate (EC50 nM) NLA(P19-003)
Description: as §2

NL4(P34-003) = test: Viral isolate resistance assay per Markowitz et al., NL4(P34-003); assay type: cell-based, HIV-1; conditions: Human immunodeficiency virus 1; Table 11; selected against Example 9, 34 passages
Description: as §2

CC(C)c1nc(CN(C)C(=O)N[C@H](C(=O)N[C@@H](Cc2ccccc2)C[C@H](O)[C@H](Cc2ccccc2)NC(=O)OCc2cncs2)C(C)C)cs1 [Example 10]
EC90 (HIV-1NL4-3; Table 7, EC90, read-out: Virus Isolate (EC90 nM) NL4): 80 nM
EC50 (HIV-1NL4-3; Table 8, read-out: Virus Isolate (EC50 nM) NL4): 80 nM
EC90 (NL4(G48V)): 160 nM
EC90 (NL4(I84V)): 800 nM
EC50 (NL4(R8Q,M46I)): 240 nM
EC50 (NL4(P22-538)): 1600 nM
EC50 (NL4(P37-538)): 6400 nM
EC50 (NL4(538/524)): 6400 nM
EC50 (NL4(538/P7-AG)): 6400 nM
EC50 (NL4(538/P24-AG)): 6400 nM
EC50 (NLA(P19-003)): 400 nM
EC50 (NL4(P34-003)): 400 nM
